Experimental data as given in ChEMBL document CHEMBL3297661, “1-Substituted-5-[(3,5-dinitrobenzyl)sulfanyl]-1H-tetrazoles and their isosteric analogs: A new class of selective antitubercular agents active against drug-susceptible and multidrug-resistant mycobacteria” (Eur J Med Chem, 2014).
In brackets after ≈: the same amount, converted by molar mass.

Key:
Candida tropicalis [1] = assay: Antifungal activity against Candida tropicalis 156 after 48 hrs by broth microdilution method; assay type: functional; conditions: Candida tropicalis, 156, 48 h
Candida albicans [2] = assay: Antifungal activity against Candida albicans ATCC 44859 after 24 hrs by broth microdilution method; assay type: functional; conditions: ATCC 44859, 24 h
Nakaseomyces glabratus [3] = assay: Antifungal activity against Candida glabrata 20/I after 48 hrs by broth microdilution method; assay type: functional
[4] = Cytotoxicity against human HuH7 cells assessed as cell viability at 30 uM after 48 hrs by MTT assay; assay type: cell-based, Huh-7; conditions: read-out: Activity
Pichia kudriavzevii [5] = assay: Antifungal activity against Candida krusei E28 after 48 hrs by broth microdilution method; assay type: functional; conditions: E28, 48 h
Mycobacterium kansasii [6] = assay: Antimycobacterial activity against Mycobacterium kansasii 6509/96 after 14 days by micromethod; assay type: functional; conditions: 6509/96, 336 h
[7] = Cytotoxicity against MDCK2 cells assessed as reduction in cell viability after 48 hrs by MTT assay; assay type: cell-based; conditions: Canis lupus familiaris, MDCK-II
Mycobacterium kansasii [8] = assay: Antimycobacterial activity against Mycobacterium kansasii 6509/96 after 7 days by micromethod; assay type: functional; conditions: 6509/96, 168 h
Pseudomonas aeruginosa [9] = assay: Antibacterial activity against Pseudomonas aeruginosa ATCC 9027 after 24 hrs by broth microdilution method; assay type: functional; conditions: ATCC 9027, 24 h
Mycobacterium kansasii [10] = assay: Antimycobacterial activity against Mycobacterium kansasii CNCTC My 235/80 after 7 days by micromethod; assay type: functional; conditions: CNCTC My 235/80, 168 h
Enterococcus faecalis [11] = assay: Antibacterial activity against Enterococcus faecalis J 14365/08 after 48 hrs by broth microdilution method; assay type: functional; conditions: J 14365/08, 48 h
HepG2 = assay: Cytotoxicity against human HepG2 cells assessed as reduction in cell viability after 48 hrs by MTT assay; assay type: cell-based; conditions: HepG2, 48 h
Pseudomonas aeruginosa [12] = assay: Antibacterial activity against Pseudomonas aeruginosa ATCC 9027 after 48 hrs by broth microdilution method; assay type: functional; conditions: ATCC 9027, 48 h
Mycobacterium kansasii [13] = assay: Antimycobacterial activity against Mycobacterium kansasii 6509/96 after 21 days by micromethod; assay type: functional; conditions: 6509/96, 504 h
[14] = system: Trichophyton mentagrophytes; assay: Antifungal activity against Trichophyton mentagrophytes 445 after 120 hrs by broth microdilution method; assay type: functional, organism-based; conditions: Trichophyton mentagrophytes, 445, 120 h
Staphylococcus aureus [15] = assay: Antibacterial activity against methicillin-resistant Staphylococcus aureus H 5996/08 after 24 hrs by broth microdilution method; assay type: functional; conditions: H 5996/08, 24 h
HeLa = assay: Cytotoxicity against human HeLa cells assessed as reduction in cell viability after 48 hrs by MTT assay; assay type: cell-based
Trichosporon asahii [16] = assay: Antifungal activity against Trichosporon asahii 1188 after 24 hrs by broth microdilution method; assay type: functional; conditions: Trichosporon asahii, 1188, 24 h
[17] = system: Staphylococcus epidermidis; assay: Antibacterial activity against Staphylococcus epidermidis H 6966/08 after 24 hrs by broth microdilution method; assay type: functional; conditions: H 6966/08, 24 h
Staphylococcus aureus [18] = assay: Antibacterial activity against Staphylococcus aureus ATCC 6538 after 24 hrs by broth microdilution method; assay type: functional; conditions: ATCC 6538, 24 h
Klebsiella pneumoniae [19] = assay: Antibacterial activity against Klebsiella pneumoniae D 11750/08 after 48 hrs by broth microdilution method; assay type: functional; conditions: D 11750/08, 48 h
Lichtheimia corymbifera [20] = assay: Antifungal activity against Absidia corymbifera 272 after 48 hrs by broth microdilution method; assay type: functional, organism-based; conditions: Lichtheimia corymbifera, 272, 48 h
[21] = Cytotoxicity against human HeLa cells assessed as cell viability at 30 uM after 48 hrs by MTT assay; assay type: cell-based; conditions: read-out: Activity
Pichia kudriavzevii [22] = assay: Antifungal activity against Candida krusei E28 after 24 hrs by broth microdilution method; assay type: functional; conditions: E28, 24 h
Aspergillus fumigatus [23] = assay: Antifungal activity against Aspergillus fumigatus 231 after 48 hrs by broth microdilution method; assay type: functional, organism-based; conditions: Aspergillus fumigatus, 231, 48 h
Candida tropicalis [24] = assay: Antifungal activity against Candida tropicalis 156 after 24 hrs by broth microdilution method; assay type: functional; conditions: Candida tropicalis, 156, 24 h
[25] = Cytotoxicity against human HepG2 cells assessed as cell viability at 30 uM after 48 hrs by MTT assay; assay type: cell-based; conditions: read-out: Activity
Mycobacterium avium [26] = assay: Antimycobacterial activity against Mycobacterium avium CNCTC My 330/88 after 21 days by micromethod; assay type: functional; conditions: CNCTC My 330/88, 504 h
Enterococcus faecalis [27] = assay: Antibacterial activity against Enterococcus faecalis J 14365/08 after 24 hrs by broth microdilution method; assay type: functional; conditions: J 14365/08, 24 h
Nakaseomyces glabratus [28] = assay: Antifungal activity against Candida glabrata 20/I after 24 hrs by broth microdilution method; assay type: functional
Klebsiella pneumoniae [29] = assay: Antibacterial activity against extended spectrum beta-lactamase producing Klebsiella pneumoniae J 14368/08 after 48 hrs by broth microdilution method; assay type: functional; conditions: J 14368/08, 48 h
[30] = system: Staphylococcus epidermidis; assay: Antibacterial activity against Staphylococcus epidermidis H 6966/08 after 48 hrs by broth microdilution method; assay type: functional; conditions: H 6966/08, 48 h
Mycobacterium avium [31] = assay: Antimycobacterial activity against Mycobacterium avium CNCTC My 330/88 after 14 days by micromethod; assay type: functional; conditions: CNCTC My 330/88, 336 h
Mycobacterium kansasii [32] = assay: Antimycobacterial activity against Mycobacterium kansasii CNCTC My 235/80 after 21 days by micromethod; assay type: functional; conditions: CNCTC My 235/80, 504 h
Lichtheimia corymbifera [33] = assay: Antifungal activity against Absidia corymbifera 272 after 24 hrs by broth microdilution method; assay type: functional, organism-based; conditions: Lichtheimia corymbifera, 272, 24 h
Staphylococcus aureus [34] = assay: Antibacterial activity against methicillin-resistant Staphylococcus aureus H 5996/08 after 48 hrs by broth microdilution method; assay type: functional; conditions: H 5996/08, 48 h
Klebsiella pneumoniae [35] = assay: Antibacterial activity against Klebsiella pneumoniae D 11750/08 after 24 hrs by broth microdilution method; assay type: functional; conditions: D 11750/08, 24 h
Klebsiella pneumoniae [36] = assay: Antibacterial activity against extended spectrum beta-lactamase producing Klebsiella pneumoniae J 14368/08 after 24 hrs by broth microdilution method; assay type: functional; conditions: J 14368/08, 24 h
[37] = system: Mycobacterium tuberculosis; assay: Antimycobacterial activity against Mycobacterium tuberculosis CNCTC My 331/88 after 21 days by micromethod; assay type: functional; conditions: CNCTC My 331/88, 504 h
[38] = Cytotoxicity against MDCK2 cells assessed as cell viability at 30 uM after 48 hrs by MTT assay; assay type: cell-based, Canis lupus familiaris, MDCK-II; conditions: dog, read-out: Activity
Mycobacterium kansasii [39] = assay: Antimycobacterial activity against Mycobacterium kansasii CNCTC My 235/80 after 14 days by micromethod; assay type: functional; conditions: CNCTC My 235/80, 336 h
Escherichia coli [40] = assay: Antibacterial activity against Escherichia coli ATCC 8739 after 48 hrs by broth microdilution method; assay type: functional; conditions: ATCC 8739, ATCC 8739, 48 h
Staphylococcus aureus [41] = assay: Antibacterial activity against Staphylococcus aureus ATCC 6538 after 48 hrs by broth microdilution method; assay type: functional; conditions: ATCC 6538, 48 h
[42] = system: Mycobacterium tuberculosis; assay: Antimycobacterial activity against Mycobacterium tuberculosis CNCTC My 331/88 after 14 days by micromethod; assay type: functional; conditions: CNCTC My 331/88, 336 h
Candida albicans [43] = assay: Antifungal activity against Candida albicans ATCC 44859 after 48 hrs by broth microdilution method; assay type: functional; conditions: ATCC 44859, 48 h
Aspergillus fumigatus [44] = assay: Antifungal activity against Aspergillus fumigatus 231 after 24 hrs by broth microdilution method; assay type: functional, organism-based; conditions: Aspergillus fumigatus, 231, 24 h
Trichosporon asahii [45] = assay: Antifungal activity against Trichosporon asahii 1188 after 48 hrs by broth microdilution method; assay type: functional; conditions: Trichosporon asahii, 1188, 48 h
Escherichia coli [46] = assay: Antibacterial activity against Escherichia coli ATCC 8739 after 24 hrs by broth microdilution method; assay type: functional; conditions: ATCC 8739, ATCC 8739, 24 h
[47] = Cytotoxicity against human HuH7 cells assessed as reduction in cell viability after 48 hrs by MTT assay; assay type: cell-based; conditions: Huh-7, 48 h
[48] = system: Trichophyton mentagrophytes; assay: Antifungal activity against Trichophyton mentagrophytes 445 after 72 hrs by broth microdilution method; assay type: functional, organism-based; conditions: Trichophyton mentagrophytes, 445, 72 h

## O=[N+]([O-])c1cc(CSc2nnnn2C2CCCCC2)cc([N+](=O)[O-])c1
Candida tropicalis [1]
  IC80: > 500 µM
Candida albicans [2]
  IC80: > 500 µM
Nakaseomyces glabratus [3]
  IC80: > 500 µM
[4]
  viability at 48 h, 30 µM: 128%
Pichia kudriavzevii [5]
  IC80: > 500 µM
Mycobacterium kansasii [6]
  MIC: 2 µM (≈ 0.729 µg/mL)
[7]
  IC50: > 30 µM
Mycobacterium kansasii [8]
  MIC: 2 µM (≈ 0.729 µg/mL)
Pseudomonas aeruginosa [9]
  IC95: > 500 µM
Mycobacterium kansasii [10]
  MIC: 4 µM (≈ 1.46 µg/mL)
Enterococcus faecalis [11]
  IC95: > 500 µM
HepG2
  IC50: > 30 µM
Pseudomonas aeruginosa [12]
  IC95: > 500 µM
Mycobacterium kansasii [13]
  MIC: 4 µM (≈ 1.46 µg/mL)
[14]
  IC50: > 500 µM
Staphylococcus aureus [15]
  IC95: > 500 µM
HeLa
  IC50: > 30 µM
Trichosporon asahii [16]
  IC80: > 500 µM
[17]
  IC95: > 500 µM
Staphylococcus aureus [18]
  IC95: > 500 µM
Klebsiella pneumoniae [19]
  IC95: > 500 µM
Lichtheimia corymbifera [20]
  IC50: > 500 µM
[21]
  viability at 48 h, 30 µM: 84%
Pichia kudriavzevii [22]
  IC80: > 500 µM
Aspergillus fumigatus [23]
  IC50: > 500 µM
Candida tropicalis [24]
  IC80: > 500 µM
[25]
  viability at 48 h, 30 µM: 88%
Mycobacterium avium [26]
  MIC: 32 µM (≈ 11.7 µg/mL)
Enterococcus faecalis [27]
  IC95: > 500 µM
Nakaseomyces glabratus [28]
  IC80: > 500 µM
Klebsiella pneumoniae [29]
  IC95: > 500 µM
[30]
  IC95: > 500 µM
Mycobacterium avium [31]
  MIC: 16 µM (≈ 5.83 µg/mL)
Mycobacterium kansasii [32]
  MIC: 4 µM (≈ 1.46 µg/mL)
Lichtheimia corymbifera [33]
  IC50: > 500 µM
Staphylococcus aureus [34]
  IC95: > 500 µM
Klebsiella pneumoniae [35]
  IC95: > 500 µM
Klebsiella pneumoniae [36]
  IC95: > 500 µM
[37]
  MIC: 1 µM (≈ 0.364 µg/mL)
[38]
  viability at 48 h, 30 µM: 98%
Mycobacterium kansasii [39]
  MIC: 4 µM (≈ 1.46 µg/mL)
Escherichia coli [40]
  IC95: > 500 µM
Staphylococcus aureus [41]
  IC95: > 500 µM
[42]
  MIC: 1 µM (≈ 0.364 µg/mL)
Candida albicans [43]
  IC80: > 500 µM
Aspergillus fumigatus [44]
  IC50: > 500 µM
Trichosporon asahii [45]
  IC80: > 500 µM
Escherichia coli [46]
  IC95: > 500 µM
[47]
  IC50: > 30 µM
[48]
  IC50: > 500 µM
